Test results published in patent US20080093247A1, “PACKAGING MATERIALS FOR FORMULATIONS CONTAINING 2-PYRROLIDONE DERIVATIVES” (Alcon Manufacturing Ltd., priority 2006, published 2008).
Where “and” joins values, the source holds several entries; their conditions need not be identical. Equal values may be shown once.

Experiments:
[1] = Retention of N-dodecyl-2-pyrrolidone (DDP) in formulations stored in various packaging materials, HPLC; type: physicochemical
Experimental: A material substantially lacking absorptive and adsorptive properties for a 5-(R1)-N-(R2)-2-pyrrolidone. A material substantially lacking absorptive and adsorptive properties for a 5-(R1)-N-(R2)-2-pyrrolidone is determined by packaging a 5-(R1)-N-(R2)-2-pyrrolidone-containing formulation in a bottle made from a test material, removing samples from the formulation at different storage times, and testing for the presence of the 2-pyrrolidone derivative. For example, presence of N-dodecyl-2-pyrrolidone (DDP) within a test sample is determined quantitatively using HPLC analysis as described in the examples provided infra.
The serotonergic formulation set forth in Table 1 was compounded in a glass bottle using techniques known to those skilled in the art. The formulation was tested for starting DDP concentration and then a volume was filled into different types of packaging materials as set forth in Table 2. The filled packages were then stored at the conditions indicated in Table 2, either room temperature or constant temperature ovens at 40° C. and 60° C. The thermal exposure testing was used to simulate the ability of container material to retain and deliver DDP in solution over a period of time or after prolonged increased thermal exposure. The tests were performed on duplicate containers to verify DDP concentration remaining in solution.
Concentration of DDP in each formulation was determined by chromatographic separation. The tests were performed on a WATERS ALLIANCE HPLC system with a CADENZA C18 column using a mobile phase consisting of 85% acetonitrile and 15% 1-octanesulfonic acid/water at room temperature. Absorbance was monitored at 220 nm, the known absorption wavelength of DDP. Linear range of detection for DDP was from 1.0 to 100.0 ppm. Retention time of DDP using this system is 8.3 minutes.
In further reference to Table 2, “Glass Vial” is a 1.5 mL clear borosilicate glass vial sealed with a TEFLON® lined septa and aluminum crimp seal (AGILENT HPLC vials part number 5182-0543). “White PETE” is a 60 mL cylindrical bottle made from polyethylene terephthalate (PETE) resin containing a white colorant, titanium dioxide (ALCON part number X04715). “Natural sPP” is a 4 mL oval bottle made from syndiotactic polypropylene (sPP) resin without colorant, i.e., natural (ALCON part number 281277). “Natural TEFLON®” is a 30 mL cylindrical bottle made from fluorinated ethylene propylene (TEFLON® FEP) polymer without colorant by NALGENE® (VWR part number 16071-008).
The serotonergic formulation set forth in Table 3 was compounded in the same manner as the Table 1 formulation. The test, the method of testing, and the packaging were as for the Table 1 formulation.
The formulation set forth in Table 5 was compounded in the same manner as the Table 1 formulation. The test, the method of testing, and the packaging were as for the Table 1 formulation.
The formulation set forth in Table 7 was compounded in the same manner as the Table 1 formulation. The test, the method of testing, and the packaging were as for the Table 1 formulation, except as indicated. “White LDPE” is an 8 mL cylindrical bottle made from low-density polyethylene (LDPE) with white colorant and is ALCON part number 277027. “Natural Polystyrene” is a 150 mL cylindrical bottle made of polystyrene polymer without colorant and is CORNING filter flask product 431153.

[2] = cited from earlier work

CCCCCCCCCCCCN1CCCC1=O [DDP, N-dodecyl-2-pyrrolidone]
DDP concentration in formulation ([1]; Table 1 formulation, Glass Vial 1.5 mL Fill, 1 day @ 40° C.): 9.5 ppm and 9.6 ppm | DDP concentration in formulation ([1]; Table 1 formulation, Glass Vial 1.5 mL Fill, 1 day @ 60° C.): 10 ppm and 9.6 ppm | DDP concentration in formulation ([1]; Table 1 formulation, Glass Vial 1.5 mL Fill, 1 day @ RT): 9.2 ppm and 9.3 ppm | DDP concentration in formulation ([1]; Table 1 formulation, Glass Vial 1.5 mL Fill, 2 days @ 40° C.): 9.3, 9.3 ppm | DDP concentration in formulation ([1]; Table 1 formulation, Glass Vial 1.5 mL Fill, 2 days @ 60° C.): 9.4 ppm and 9.1 ppm | DDP concentration in formulation ([1]; Table 1 formulation, Glass Vial 1.5 mL Fill, 5 days @ 40° C.): 8.8 ppm and 9.1 ppm | DDP concentration in formulation ([1]; Table 1 formulation, Glass Vial 1.5 mL Fill, 5 days @ 60° C.): 8.9 ppm and 8.6 ppm | DDP concentration in formulation ([1]; Table 1 formulation, Glass Vial 1.5 mL Fill, 6 days @ RT): 9.0, 9.0 ppm | DDP concentration in formulation ([1]; Table 1 formulation, Natural TEFLON 10 mL Fill, 2 days @ 60° C.): 8.4 ppm | DDP concentration in formulation ([1]; Table 1 formulation, Natural TEFLON 10 mL Fill, 5 days @ 60° C.): 7.8 ppm | DDP concentration in formulation ([1]; Table 1 formulation, Natural sPP 4 mL Fill, 1 day @ 40° C.): 3.3 ppm and 3.4 ppm | DDP concentration in formulation ([1]; Table 1 formulation, Natural sPP 4 mL Fill, 1 day @ 60° C.): 1.3, 1.3 ppm | DDP concentration in formulation ([1]; Table 1 formulation, Natural sPP 4 mL Fill, 1 day @ RT): 6.1 ppm and 6.6 ppm | DDP concentration in formulation ([1]; Table 1 formulation, Natural sPP 4 mL Fill, 2 days @ 40° C.): 1.6 ppm and 1.7 ppm | DDP concentration in formulation ([1]; Table 1 formulation, Natural sPP 4 mL Fill, 2 days @ 60° C.): 1.2 ppm and 1.3 ppm | DDP concentration in formulation ([1]; Table 1 formulation, Natural sPP 4 mL Fill, 6 days @ RT): 4.0 ppm and 3.9 ppm | DDP concentration in formulation ([1]; Table 1 formulation, Start, before filling into packaging): 11,11 ppm and 11, 11 ppm | DDP concentration in formulation ([1]; Table 1 formulation, White PETE 10 mL Fill, 1 day @ 40° C.): 9.6 ppm and 9.3 ppm | DDP concentration in formulation ([1]; Table 1 formulation, White PETE 10 mL Fill, 1 day @ 60° C.): 8.1 ppm and 8.3 ppm | DDP concentration in formulation ([1]; Table 1 formulation, White PETE 10 mL Fill, 1 day @ RT): 9.8 ppm and 10 ppm | DDP concentration in formulation ([1]; Table 1 formulation, White PETE 10 mL Fill, 2 days @ 40° C.): 8.9 ppm and 9.4 ppm | DDP concentration in formulation ([1]; Table 1 formulation, White PETE 10 mL Fill, 2 days @ 60° C.): 7.4 ppm and 7.5 ppm | DDP concentration in formulation ([1]; Table 1 formulation, White PETE 10 mL Fill, 5 days @ 40° C.): 8.8 ppm and 9.3 ppm | DDP concentration in formulation ([1]; Table 1 formulation, White PETE 10 mL Fill, 5 days @ 60° C.): 6.1 ppm and 6.4 ppm | DDP concentration in formulation ([1]; Table 1 formulation, White PETE 10 mL Fill, 6 days @ RT): 9.1 ppm and 9.0 ppm | DDP concentration after thermal exposure (in words) ([1]; Table 1 formulation, sPP container, Tests 1, 2, and 3): drops significantly | DDP concentration in formulation ([1]; Table 3 formulation, Glass Vial 1.5 mL Fill, 1 day @ 40° C.): 20, 20 ppm | DDP concentration in formulation ([1]; Table 3 formulation, Glass Vial 1.5 mL Fill, 1 day @ 60° C.): 20, 20 ppm | DDP concentration in formulation ([1]; Table 3 formulation, Glass Vial 1.5 mL Fill, 1 day @ RT): 20, 20 ppm | DDP concentration in formulation ([1]; Table 3 formulation, Glass Vial 1.5 mL Fill, 2 days @ 40° C.): 19 ppm and 21 ppm | DDP concentration in formulation ([1]; Table 3 formulation, Glass Vial 1.5 mL Fill, 2 days @ 60° C.): 20 ppm and 19 ppm | DDP concentration in formulation ([1]; Table 3 formulation, Glass Vial 1.5 mL Fill, 5 days @ 40° C.): 20, 20 ppm | DDP concentration in formulation ([1]; Table 3 formulation, Glass Vial 1.5 mL Fill, 5 days @ 60° C.): 19, 19 ppm | DDP concentration in formulation ([1]; Table 3 formulation, Glass Vial 1.5 mL Fill, 6 days @ RT): 20, 20 ppm | DDP concentration in formulation ([1]; Table 3 formulation, Natural TEFLON 10 mL Fill, 2 days @ 60° C.): 19 ppm | DDP concentration in formulation ([1]; Table 3 formulation, Natural TEFLON 10 mL Fill, 5 days @ 60° C.): 19 ppm | DDP concentration in formulation ([1]; Table 3 formulation, Natural sPP 4 mL Fill, 1 day @ 40° C.): 13, 13 ppm | DDP concentration in formulation ([1]; Table 3 formulation, Natural sPP 4 mL Fill, 1 day @ 60° C.): 7.0, 7.0 ppm | DDP concentration in formulation ([1]; Table 3 formulation, Natural sPP 4 mL Fill, 1 day @ RT): 18, 18 ppm | DDP concentration in formulation ([1]; Table 3 formulation, Natural sPP 4 mL Fill, 2 days @ 40° C.): 10, 10 ppm | DDP concentration in formulation ([1]; Table 3 formulation, Natural sPP 4 mL Fill, 2 days @ 60° C.): 3.4 ppm and 3.2 ppm | DDP concentration in formulation ([1]; Table 3 formulation, Natural sPP 4 mL Fill, 5 days @ 40° C.): 6.1 ppm and 6.2 ppm | DDP concentration in formulation ([1]; Table 3 formulation, Natural sPP 4 mL Fill, 6 days @ RT): 15, 15 ppm | DDP concentration in formulation ([1]; Table 3 formulation, Start, before filling into packaging): 20, 20 ppm | DDP concentration in formulation ([1]; Table 3 formulation, White PETE 10 mL Fill, 1 day @ 40° C.): 20, 20 ppm | DDP concentration in formulation ([1]; Table 3 formulation, White PETE 10 mL Fill, 1 day @ 60° C.): 19 ppm and 20 ppm | DDP concentration in formulation ([1]; Table 3 formulation, White PETE 10 mL Fill, 1 day @ RT): 21 ppm and 20 ppm | DDP concentration in formulation ([1]; Table 3 formulation, White PETE 10 mL Fill, 2 days @ 40° C.): 20 ppm and 19 ppm | DDP concentration in formulation ([1]; Table 3 formulation, White PETE 10 mL Fill, 2 days @ 60° C.): 18 ppm and 19 ppm | DDP concentration in formulation ([1]; Table 3 formulation, White PETE 10 mL Fill, 5 days @ 40° C.): 20, 20 ppm | DDP concentration in formulation ([1]; Table 3 formulation, White PETE 10 mL Fill, 5 days @ 60° C.): 17 ppm and 18 ppm | DDP concentration in formulation ([1]; Table 3 formulation, White PETE 10 mL Fill, 6 days @ RT): 19 ppm and 20 ppm | available DDP in the contained solution (in words) ([1]; Table 3 formulation, sPP packaging relative to Glass Vial, PETE, and TEFLON, Tests 4, 5, and 6): significant reduction | DDP concentration in formulation ([1]; Table 5 formulation, Glass Vial 1.5 mL Fill, 1 day @ 40° C.): 9.0 ppm and 8.9 ppm | DDP concentration in formulation ([1]; Table 5 formulation, Glass Vial 1.5 mL Fill, 1 day @ RT): 8.7 ppm and 8.6 ppm | DDP concentration in formulation ([1]; Table 5 formulation, Glass Vial 1.5 mL Fill, 2 days @ 40° C.): 8.6 ppm and 8.2 ppm | DDP concentration in formulation ([1]; Table 5 formulation, Glass Vial 1.5 mL Fill, 6 days @ RT): 8.4 ppm and 8.2 ppm | DDP concentration in formulation ([1]; Table 5 formulation, Natural sPP 4 mL Fill, 1 day @ 40° C.): 0.3, 0.3 ppm | DDP concentration in formulation ([1]; Table 5 formulation, Natural sPP 4 mL Fill, 1 day @ RT): 1.1, 1.1 ppm | DDP concentration in formulation ([1]; Table 5 formulation, Start, before filling into packaging): 8.0, 8.0 ppm | DDP concentration in formulation ([1]; Table 5 formulation, White PETE 10 mL Fill, 1 day @ 40° C.): 5.5 ppm and 5.0 ppm | DDP concentration in formulation ([1]; Table 5 formulation, White PETE 10 mL Fill, 1 day @ RT): 6.3 ppm and 6.4 ppm | DDP concentration in formulation ([1]; Table 5 formulation, White PETE 10 mL Fill, 2 days @ 40° C.): 4.6 ppm and 4.5 ppm | DDP concentration in formulation ([1]; Table 5 formulation, White PETE 10 mL Fill, 6 days @ RT): 6.5 ppm and 6.4 ppm | available DDP in the contained solution (in words) ([1]; Table 5 formulation, sPP packaging relative to Glass Vial and PETE, Tests 7, 8, and 9): significant reduction | retaining DDP in the formulation (in words) ([1]; Table 7 formulation, Natural Polystyrene container, Tests 10, 11, and 12): essentially equivalent to the PETE container | loss of DDP from the formulation (in words) ([1]; Table 7 formulation, White LDPE container, Tests 10, 11, and 12): even more severe than the sPP container | loss of DDP from the formulation (in words) ([1]; Table 7 formulation, sPP container, Tests 10, 11, and 12): much greater than that of the Glass Vial or PETE containers | solubility in water [2]: up to 0.002%

CCCCCCCCN1CCCC1=O [N-octyl-2-pyrrolidone]
solubility in water [2]: up to 0.124%
